Data as given in ChEMBL document CHEMBL1140178, “Design, synthesis, and biological evaluation of novel constrained meta-substituted phenyl propanoic acids as peroxisome proliferator-activated receptor alpha and gamma dual agonists” (J Med Chem, 2008).
Calls of active or inactive are those of the source. The calls are words filed in the database; no cut-off is given here.

What was measured:
[1] = target: T1, Peroxisome proliferator-activated receptor alpha (Homo sapiens) (UniProt Q07869); assay: (§1) Agonist activity at human PPARalpha ligand binding domain expressed in african green monkey CV1 cells co-transfected with fused Gal4-DBD by transactivation assay; format: cell-based; settings: CV-1
T1 sequence (whole entry): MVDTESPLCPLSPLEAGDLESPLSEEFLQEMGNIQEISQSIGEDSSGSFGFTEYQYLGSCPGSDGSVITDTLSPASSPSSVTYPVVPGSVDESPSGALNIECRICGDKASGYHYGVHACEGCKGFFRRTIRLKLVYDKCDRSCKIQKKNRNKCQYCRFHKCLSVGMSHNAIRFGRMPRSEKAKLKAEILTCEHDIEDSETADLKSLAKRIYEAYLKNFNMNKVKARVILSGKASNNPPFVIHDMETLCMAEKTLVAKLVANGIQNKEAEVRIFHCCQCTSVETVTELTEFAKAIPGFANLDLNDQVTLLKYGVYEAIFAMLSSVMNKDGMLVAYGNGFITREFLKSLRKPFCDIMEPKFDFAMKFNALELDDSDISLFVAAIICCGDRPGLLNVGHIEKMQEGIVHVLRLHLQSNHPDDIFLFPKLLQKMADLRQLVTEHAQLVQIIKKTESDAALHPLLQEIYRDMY

Mus musculus [2] = assay: Antihyperglycemic effect in db/db mouse assessed as inhibition of blood glucose at 20 mg/kg, po after 5 days; format: functional; settings: 120 h
[3] = target: T2, Peroxisome proliferator-activated receptor gamma (Homo sapiens, UniProt P37231)
T2 sequence (P37231 whole entry): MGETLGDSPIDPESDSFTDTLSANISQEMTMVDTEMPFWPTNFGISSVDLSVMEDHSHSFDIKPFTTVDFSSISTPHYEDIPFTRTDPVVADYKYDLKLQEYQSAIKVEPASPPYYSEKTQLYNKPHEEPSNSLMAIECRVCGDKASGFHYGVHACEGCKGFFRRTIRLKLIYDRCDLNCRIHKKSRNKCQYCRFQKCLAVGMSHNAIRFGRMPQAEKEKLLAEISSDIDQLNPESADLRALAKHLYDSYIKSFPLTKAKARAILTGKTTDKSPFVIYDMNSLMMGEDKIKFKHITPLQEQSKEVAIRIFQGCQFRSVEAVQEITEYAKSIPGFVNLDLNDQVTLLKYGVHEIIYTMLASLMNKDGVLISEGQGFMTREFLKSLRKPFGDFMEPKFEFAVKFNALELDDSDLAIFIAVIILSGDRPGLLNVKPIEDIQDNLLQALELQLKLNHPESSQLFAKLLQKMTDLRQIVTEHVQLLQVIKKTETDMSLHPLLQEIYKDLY
Description: Agonist activity at human PPARgamma ligand binding domain expressed in african green monkey CV1 cells co-transfected with fused Gal4-DBD by transactivation assay

[4] = target: T1, Peroxisome proliferator-activated receptor alpha (Homo sapiens); assay: Agonist activity at human PPARalpha ligand binding domain expressed in african green monkey CV1 cells co-transfected with fused Gal4-DBD by transactivation assay relative to gemfibrozil; format: cell-based; settings: CV-1
[5] = target: T3, Peroxisome proliferator-activated receptor alpha (Homo sapiens, UniProt Q07869); assay: as §1; format: cell-based, CV-1
T3 sequence (Q07869 whole entry): T1 sequence (whole entry)

Mus musculus [6] = assay: Antihyperglycemic effect in db/db mouse assessed as inhibition of blood glucose at 3 mg/kg, po after 5 days; format: functional; settings: 120 h
CV-1 = assay: Ratio of EC50 for human PPARalpha ligand binding domain expressed in african green monkey CV1 cells to EC50 for human PPARgamma ligand binding domain expressed in african green monkey CV1 cells; format: cell-based
Mus musculus [7] = assay: Toxicity in db/db mouse assessed as weight gain at 3 mg/kg, po after 7 days; format: organism-based; parameters: dose 3 mg/kg, route oral; settings: in vivo, 168 h
Mus musculus [8] = assay: Toxicity in db/db mouse assessed as weight gain at 3 mg/kg, po after 11 days; format: organism-based; parameters: dose 3 mg/kg, route oral; settings: in vivo, 264 h
Mus musculus [9] = assay: Toxicity in db/db mouse assessed as weight gain at 3 mg/kg, po after 4 days; format: organism-based; parameters: dose 3 mg/kg, route oral; settings: in vivo, 96 h
Mus musculus [10] = assay: Antihyperglycemic effect in db/db mouse assessed as inhibition of blood glucose at 3 mg/kg, po after 4 days; format: functional; settings: 96 h
Mus musculus [11] = assay: Antihyperglycemic effect in db/db mouse assessed as inhibition of blood glucose at 3 mg/kg, po after 11 days; format: functional; settings: 264 h
Mus musculus [12] = assay: Antihyperglycemic effect in db/db mouse assessed as inhibition of blood glucose at 3 mg/kg, po after 7 days; format: functional; settings: 168 h
Mus musculus [13] = assay: Antihyperglycemic effect in db/db mouse assessed as inhibition of blood glucose at 0.3 mg/kg, po after 5 days; format: functional; settings: 120 h
Mus musculus [14] = assay: Antihyperglycemic effect in db/db mouse assessed as inhibition of blood glucose at 0.3 mg/kg, po after 11 days; format: functional; settings: 264 h
Mus musculus [15] = assay: Toxicity in db/db mouse assessed as weight gain at 0.3 mg/kg, po after 11 days; format: organism-based; parameters: dose 0.3 mg/kg, route oral; settings: in vivo, 264 h
Mus musculus [16] = assay: Antihyperglycemic effect in db/db mouse assessed as inhibition of blood glucose at 0.3 mg/kg, po after 4 days; format: functional; settings: 96 h
Mus musculus [17] = assay: Toxicity in db/db mouse assessed as weight gain at 0.3 mg/kg, po after 7 days; format: organism-based; parameters: dose 0.3 mg/kg, route oral; settings: in vivo, 168 h
Mus musculus [18] = assay: Antihyperglycemic effect in db/db mouse assessed as inhibition of blood glucose at 0.3 mg/kg, po after 7 days; format: functional; settings: 168 h
Mus musculus [19] = assay: Toxicity in db/db mouse assessed as weight gain at 0.3 mg/kg, po after 4 days; format: organism-based; parameters: dose 0.3 mg/kg, route oral; settings: in vivo, 96 h

SMILES	EC50 [3]	Emax [4]	EC50 [5]	further results
CCO[C@H](Cc1cccc(C2=NOC(c3ccccc3)C2)c1)C(=O)O (stereo not given in full)	25.4 µM			Activity [1]: inactive; inhibition in vivo at 20 mg/kg (Mus musculus [2]): 3%
CCO[C@H](Cc1cccc(C2=NOC(Cc3ccccc3)C2)c1)C(=O)O (stereo not given in full)	41.4 µM	6%		Activity [1]: inactive
CCO[C@@H](Cc1cccc(/C(C)=N/OCc2ccc(C(C)(C)C)cc2)c1)C(=O)O	0.279 µM	137%	12.1 µM	
CCO[C@@H](Cc1cccc(/C(C)=N/OCc2ccc(C(F)(F)F)cc2)c1)C(=O)O	0.046 µM	185%	2.95 µM	
CCO[C@@H](Cc1cccc(C2=NOC(c3ccc(I)cc3)C2)c1)C(=O)O (stereo not given in full)	0.606 µM	162%	2.76 µM	
CCO[C@@H](Cc1cccc(C2=NOC(c3ccc(Cl)cc3)C2)c1)C(=O)O (stereo not given in full)	0.816 µM	125%	6.78 µM	inhibition in vivo at 3 mg/kg (Mus musculus [6]): 41.7%
CCO[C@@H](Cc1cccc(C2=NOC(c3ccc(OC)cc3)C2)c1)C(=O)O (stereo not given in full)	3.19 µM	156%	11.3 µM	
CCO[C@@H](Cc1cccc(-c2cc(-c3ccccc3)on2)c1)C(=O)O	3.29 µM	162%	5.6 µM	
CCO[C@@H](Cc1cccc(C2=NOC(c3ccc(Br)cc3)C2)c1)C(=O)O (stereo not given in full)	0.74 µM	144%	4.39 µM	
CCO[C@@H](Cc1ccc(OCCc2ccc(OS(C)(=O)=O)cc2)cc1)C(=O)O		94%		
Cc1ccc(C)c(OCCCC(C)(C)C(=O)O)c1		100%		
CCO[C@@H](Cc1cccc(C2=NOC(c3ccc(O)cc3)C2)c1)C(=O)O (stereo not given in full)	38.6 µM	0%		
CCO[C@@H](Cc1cccc(C2=NOC(c3ccc(OS(C)(=O)=O)cc3)C2)c1)C(=O)O (stereo not given in full)	28.1 µM	107%	37.4 µM	
CCO[C@@H](Cc1cccc(C2=NOC(Cc3ccccc3)C2)c1)C(=O)O (stereo not given in full)	6.93 µM	104%	21.6 µM	Ratio EC50 (CV-1): 3.1
CCO[C@@H](Cc1cccc(C2=NOC(c3ccc(C(C)(C)C)cc3)C2)c1)C(=O)O (stereo not given in full)	2.73 µM	138%	3.95 µM	
CCO[C@@H](Cc1cccc(C2=NOC(c3ccccc3)C2)c1)C(=O)O (stereo not given in full)	0.22 µM	78%	3.99 µM	Ratio EC50 (CV-1): 18; inhibition in vivo at 20 mg/kg (Mus musculus [2]): 27%

SMILES	EC50 [3]	Emax [4]	EC50 [5]	further results
CCO[C@@H](Cc1cccc(/C(C)=N/OCc2ccccc2)c1)C(=O)O	0.121 µM	71%	2.91 µM	
CCO[C@H](Cc1cccc(-c2cc(-c3ccccc3)on2)c1)C(=O)O	37.4 µM	48%	30.4 µM	
CCO[C@@H](Cc1cccc(/C(C)=N/OCc2ccc(OS(C)(=O)=O)cc2)c1)C(=O)O	1.61 µM	165%	13.1 µM	
CCO[C@H](Cc1cccc(/C(C)=N/OCc2ccccc2)c1)C(=O)O	1.89 µM	8%		Activity [1]: inactive; inhibition in vivo at 20 mg/kg (Mus musculus [2]): 22.3%
CCO[C@@H](Cc1cccc(/C(C)=N/OCc2cccc(Cl)c2)c1)C(=O)O	0.01 µM	165%	2.27 µM	Ratio EC50 (CV-1): 227
CCO[C@@H](Cc1cccc(C2=NOC(c3ccc(F)cc3)C2)c1)C(=O)O (stereo not given in full)	1.16 µM	119%	24.4 µM	
COc1ccc(OC(=O)N(CC(=O)O)Cc2ccc(OCCc3nc(-c4ccccc4)oc3C)cc2)cc1 [MURAGLITAZAR]				Activity (Mus musculus [7]): 3.6 g; Activity (Mus musculus [8]): 6.3 g; Activity (Mus musculus [9]): 2 g; inhibition in vivo at 3 mg/kg (Mus musculus [10]): 53%; inhibition in vivo at 3 mg/kg (Mus musculus [11]): 68%; inhibition in vivo at 3 mg/kg (Mus musculus [12]): 67%
CCO[C@@H](Cc1cccc(/C(C)=N/OCc2ccc(Br)cc2)c1)C(=O)O	0.036 µM	150%	2.7 µM	
CCO[C@@H](Cc1cccc(/C(C)=N/OCc2ccccc2Cl)c1)C(=O)O	0.026 µM	143%	3.26 µM	Ratio EC50 (CV-1): 126
CCO[C@@H](Cc1cccc(/C(C)=N/OCc2ccc(O)cc2)c1)C(=O)O	2.94 µM	58%	58.8 µM	
CCO[C@@H](Cc1cccc(C2=NOC(CCc3ccccc3)C2)c1)C(=O)O (stereo not given in full)	1.85 µM	262%	3.08 µM	Ratio EC50 (CV-1): 1.7
CCO[C@@H](Cc1cccc(/C(C)=N/OCc2ccc(I)cc2)c1)C(=O)O	0.04 µM	139%	0.674 µM	
CCO[C@@H](Cc1cccc(/C(C)=N/OCc2ccc(F)cc2)c1)C(=O)O	0.139 µM	299%	5.9 µM	Activity (Mus musculus [7]): 3.6 g; inhibition in vivo at 0.3 mg/kg (Mus musculus [13]): 40.7%; Activity (Mus musculus [8]): 5.6 g; Activity (Mus musculus [9]): 2.1 g; inhibition in vivo at 0.3 mg/kg (Mus musculus [14]): 68%; Activity (Mus musculus [15]): 5.6 g; inhibition in vivo at 0.3 mg/kg (Mus musculus [16]): 39%; inhibition in vivo at 3 mg/kg (Mus musculus [10]): 64%; inhibition in vivo at 3 mg/kg (Mus musculus [6]): 61%; Activity (Mus musculus [17]): 3.6 g; inhibition in vivo at 0.3 mg/kg (Mus musculus [18]): 58%; inhibition in vivo at 3 mg/kg (Mus musculus [11]): 71%; Activity (Mus musculus [19]): 1.9 g; inhibition in vivo at 3 mg/kg (Mus musculus [12]): 73%
CCO[C@@H](Cc1cccc(/C(C)=N/OCc2ccc(OC)cc2)c1)C(=O)O	0.175 µM	179%	4.06 µM	
CCO[C@H](Cc1cccc(C2=NOC(CCc3ccccc3)C2)c1)C(=O)O (stereo not given in full)	25.1 µM	217%	44.5 µM	Ratio EC50 (CV-1): 1.8
CN(CCOc1ccc(CC2SC(=O)NC2=O)cc1)c1ccccn1 (stereo not given)		56%		
